Measured values: patent US6004934A, “Tetrapeptide derivative” (Teikoku Hormone Mfg. Co., Ltd., priority 1991, dated 1999)
Values after ≈ are worked out from the molar mass of the structure shown.

Tested on: lymphocytic leukemia P388 cells
Experiment: screening of cytostatic activity using lymphocytic leukemia P388 cells
Type: cell-based
From the text: The screening of cytostatic activity was made using lymphocytic leukemia P388 cells.

Q: How did the ED50 turn out when CC[C@H](C)[C@@H]([C@@H](CC(=O)N1CCC[C@H]1[C@H](OC)[C@@H](C)C(=O)N[C@@H](Cc1ccccc1)c1nccs1)OC)N(C)C(=O)[C@@H](NC(=O)[C@H](C(C)C)N(C)C)C(C)C [Dolastatin 10] was run?
A: 0.7 ng/mL (≈ 0.892 nM)
